From ChEMBL document CHEMBL1201861, “Genomics of Drug Sensitity in Cancer screening data, Wellcome Trust Sanger Institute”

How the values were obtained:
Experiment in all cases: cells
SK-NEP-1 = format: functional, cell-based, Homo sapiens; conditions: Homo sapiens, SK-NEP-1
Description: SANGER: Inhibition of human SK-NEP-1 cell growth in a cell viability assay.

HAL-01 = format: functional, cell-based, Homo sapiens; conditions: Homo sapiens, HAL-01
Description: SANGER: Inhibition of human HAL-01 cell growth in a cell viability assay.

KNS-42 = format: functional, cell-based, Homo sapiens; conditions: Homo sapiens, KNS-42
Description: SANGER: Inhibition of human KNS-42 cell growth in a cell viability assay.

HC-1 = format: functional, cell-based, Homo sapiens; conditions: Homo sapiens, HC-1
Description: SANGER: Inhibition of human HC-1 cell growth in a cell viability assay.

LS-1034 = format: functional, cell-based, Homo sapiens; conditions: Homo sapiens, LS-1034
Description: SANGER: Inhibition of human LS-1034 cell growth in a cell viability assay.

KY821 = format: functional, cell-based, Homo sapiens; conditions: Homo sapiens, KY821
Description: SANGER: Inhibition of human KY821 cell growth in a cell viability assay.

EC-GI-10 = format: functional, cell-based, Homo sapiens; conditions: Homo sapiens, EC-GI-10
Description: SANGER: Inhibition of human EC-GI-10 cell growth in a cell viability assay.

LB373-MEL-D = format: functional, cell-based, Homo sapiens; conditions: Homo sapiens, LB373-MEL-D
Description: SANGER: Inhibition of human LB373-MEL-D cell growth in a cell viability assay.

ES6 = format: functional, cell-based, Homo sapiens; conditions: Homo sapiens, ES6
Description: SANGER: Inhibition of human ES6 cell growth in a cell viability assay.

MFM-223 = format: functional, cell-based, Homo sapiens; conditions: Homo sapiens, MFM-223
Description: SANGER: Inhibition of human MFM-223 cell growth in a cell viability assay.

KNS-81-FD = format: functional, cell-based, Homo sapiens; conditions: Homo sapiens, KNS-81-FD
Description: SANGER: Inhibition of human KNS-81-FD cell growth in a cell viability assay.

TE-10 = format: functional, cell-based, Homo sapiens; conditions: Homo sapiens, TE-10
Description: SANGER: Inhibition of human TE-10 cell growth in a cell viability assay.

NTERA-2-cl-D1 = format: functional, cell-based, Homo sapiens; conditions: Homo sapiens, NTERA-2-cl-D1
Description: SANGER: Inhibition of human NTERA-S-cl-D1 cell growth in a cell viability assay.

ES3 = format: functional, cell-based, Homo sapiens; conditions: Homo sapiens, ES3
Description: SANGER: Inhibition of human ES3 cell growth in a cell viability assay.

LB771-HNC = format: functional, cell-based, Homo sapiens; conditions: Homo sapiens, LB771-HNC
Description: SANGER: Inhibition of human LB771-HNC cell growth in a cell viability assay.

ES5 = format: functional, cell-based, Homo sapiens; conditions: Homo sapiens, ES5
Description: SANGER: Inhibition of human ES5 cell growth in a cell viability assay.

KM12 = format: functional, cell-based, Homo sapiens; conditions: Homo sapiens, KM12
Description: SANGER: Inhibition of human KM12 cell growth in a cell viability assay.

ES4 = format: functional, cell-based, Homo sapiens; conditions: Homo sapiens, ES4
Description: SANGER: Inhibition of human ES4 cell growth in a cell viability assay.

NCI-H226 = format: functional, cell-based, Homo sapiens; conditions: Homo sapiens, NCI-H226
Description: SANGER: Inhibition of human NCI-H226 cell growth in a cell viability assay.

EKVX = format: functional, cell-based, Homo sapiens; conditions: Homo sapiens, EKVX
Description: SANGER: Inhibition of human EKVX cell growth in a cell viability assay.

LU-139 = format: functional, cell-based, Homo sapiens; conditions: Homo sapiens, LU-139
Description: SANGER: Inhibition of human LU-139 cell growth in a cell viability assay.

NCI-H1838 = format: functional, cell-based, Homo sapiens; conditions: Homo sapiens, NCI-H1838
Description: SANGER: Inhibition of human NCI-H1838 cell growth in a cell viability assay.

ATN-1 = format: functional, cell-based, Homo sapiens; conditions: Homo sapiens, ATN-1
Description: SANGER: Inhibition of human ATN-1 cell growth in a cell viability assay.

DSH1 = format: functional, cell-based, Homo sapiens; conditions: Homo sapiens, DSH1
Description: SANGER: Inhibition of human DSH1 cell growth in a cell viability assay.

CAS-1 = format: functional, cell-based, Homo sapiens; conditions: Homo sapiens, CAS-1
Description: SANGER: Inhibition of human CAS-1 cell growth in a cell viability assay.

SNU1 = format: functional, cell-based, Homo sapiens; conditions: Homo sapiens, SNU1
Description: SANGER: Inhibition of human NCI-SNU-1 cell growth in a cell viability assay.

HEL = format: functional, cell-based, Homo sapiens; conditions: Homo sapiens, HEL
Description: SANGER: Inhibition of human HEL cell growth in a cell viability assay.

TK-10 = format: functional, cell-based, Homo sapiens; conditions: Homo sapiens, TK-10
Description: SANGER: Inhibition of human TK10 cell growth in a cell viability assay.

MOLT-16 = format: functional, cell-based, Homo sapiens; conditions: Homo sapiens, MOLT-16
Description: SANGER: Inhibition of human MOLT-16 cell growth in a cell viability assay.

SJSA-1 = format: functional, cell-based, Homo sapiens; conditions: Homo sapiens, SJSA-1
Description: SANGER: Inhibition of human SJSA-1 cell growth in a cell viability assay.

SW684 = format: functional, cell-based, Homo sapiens; conditions: Homo sapiens, SW684
Description: SANGER: Inhibition of human SW684 cell growth in a cell viability assay.

COLO-800 = format: functional, cell-based, Homo sapiens; conditions: Homo sapiens, COLO-800
Description: SANGER: Inhibition of human COLO-800 cell growth in a cell viability assay.

NCI-H69 = format: functional, cell-based, Homo sapiens; conditions: Homo sapiens, NCI-H69
Description: SANGER: Inhibition of human NCI-H69 cell growth in a cell viability assay.

A3-KAW = format: functional, cell-based, Homo sapiens; conditions: Homo sapiens, A3-KAW
Description: SANGER: Inhibition of human A3-KAW cell growth in a cell viability assay.

NCI-H720 = format: functional, cell-based, Homo sapiens; conditions: Homo sapiens, NCI-H720
Description: SANGER: Inhibition of human NCI-H720 cell growth in a cell viability assay.

D283 Med = format: functional, cell-based, Homo sapiens; conditions: Homo sapiens, D283 Med
Description: SANGER: Inhibition of human D-283MED cell growth in a cell viability assay.

CTV-1 = format: functional, cell-based, Homo sapiens; conditions: Homo sapiens, CTV-1
Description: SANGER: Inhibition of human CTV-1 cell growth in a cell viability assay.

TE-11 = format: functional, cell-based, Homo sapiens; conditions: Homo sapiens, TE-11
Description: SANGER: Inhibition of human TE-11 cell growth in a cell viability assay.

SK-LMS-1 = format: functional, cell-based, Homo sapiens; conditions: Homo sapiens, SK-LMS-1
Description: SANGER: Inhibition of human SK-LMS-1 cell growth in a cell viability assay.

HD-MY-Z = format: functional, cell-based, Homo sapiens; conditions: Homo sapiens, HD-MY-Z
Description: SANGER: Inhibition of human HD-MY-Z cell growth in a cell viability assay.

COLO-684 = format: functional, cell-based, Homo sapiens; conditions: Homo sapiens, COLO-684
Description: SANGER: Inhibition of human COLO-684 cell growth in a cell viability assay.

LS-411N = format: functional, cell-based, Homo sapiens; conditions: Homo sapiens, LS-411N
KS-1 = format: functional, cell-based, Homo sapiens; conditions: Homo sapiens, KS-1
Description: SANGER: Inhibition of human KS-1 cell growth in a cell viability assay.

HCC2218 = format: functional, cell-based, Homo sapiens; conditions: Homo sapiens, HCC2218
Description: SANGER: Inhibition of human HCC2218 cell growth in a cell viability assay.

KLE = format: functional, cell-based, Homo sapiens; conditions: Homo sapiens, KLE
Description: SANGER: Inhibition of human KLE cell growth in a cell viability assay.

J-RT3-T3-5 = format: functional, cell-based, Homo sapiens; conditions: Homo sapiens, J-RT3-T3-5
Description: SANGER: Inhibition of human J-RT3-T3-5 cell growth in a cell viability assay.

NOS-1 = format: functional, cell-based, Homo sapiens; conditions: Homo sapiens, NOS-1
Description: SANGER: Inhibition of human NOS-1 cell growth in a cell viability assay.

EOL1 = format: functional, cell-based, Homo sapiens; conditions: Homo sapiens, EOL1
Description: SANGER: Inhibition of human EoL-1-cell cell growth in a cell viability assay.

MV4-11 = format: functional, cell-based, Homo sapiens, MV-4-11; conditions: Homo sapiens, MV4-11
Description: SANGER: Inhibition of human MV-4-11 cell growth in a cell viability assay.

## Cc1cc([N+](=O)[O-])ccc1NS(=O)(=O)c1cc(Cl)ccc1Cl
SK-NEP-1
  IC50: 19.2 µM
HAL-01
  IC50: 12.4 µM
KNS-42
  IC50: 12.7 µM
HC-1
  IC50: 12.7 µM
LS-1034
  IC50: 5.55 µM
KY821
  IC50: > 32 µM
EC-GI-10
  IC50: 11.3 µM
LB373-MEL-D
  IC50: 2.86 µM
ES6
  IC50: 3.03 µM
MFM-223
  IC50: > 32 µM
KNS-81-FD
  IC50: 21.2 µM
TE-10
  IC50: 4 µM
NTERA-2-cl-D1
  IC50: 1.43 µM
ES3
  IC50: 7.72 µM
LB771-HNC
  IC50: 2.24 µM
ES5
  IC50: > 32 µM
KM12
  IC50: 5.99 µM
ES4
  IC50: 7.57 µM
NCI-H226
  IC50: 12.3 µM
EKVX
  IC50: 7.56 µM
LU-139
  IC50: 12.9 µM
NCI-H1838
  IC50: > 32 µM
ATN-1
  IC50: > 32 µM
DSH1
  IC50: 0.949 µM
CAS-1
  IC50: 8.88 µM
SNU1
  IC50: 10.8 µM
HEL
  IC50: 6.96 µM
TK-10
  IC50: 10.2 µM
MOLT-16
  IC50: 5.12 µM
SJSA-1
  IC50: 5.7 µM
SW684
  IC50: > 32 µM
COLO-800
  IC50: 8.91 µM
NCI-H69
  IC50: > 32 µM
A3-KAW
  IC50: 8.78 µM
NCI-H720
  IC50: > 32 µM
D283 Med
  IC50: 3.96 µM
CTV-1
  IC50: 5.06 µM
TE-11
  IC50: > 32 µM
SK-LMS-1
  IC50: 3.1 µM
HD-MY-Z
  IC50: 14.3 µM
COLO-684
  IC50: 12.1 µM
LS-411N
  IC50: 4.52 µM
KS-1
  IC50: 12.6 µM
HCC2218
  IC50: 3.44 µM
KLE
  IC50: 6.59 µM
J-RT3-T3-5
  IC50: 5.35 µM
NOS-1
  IC50: 2.06 µM
EOL1
  IC50: 4.95 µM
MV4-11
  IC50: 5.23 µM

## Oc1ccc2ccccc2c1SSc1c(O)ccc2ccccc12
SK-NEP-1
  IC50: > 32 µM
HAL-01
  IC50: 25.8 µM
KNS-42
  IC50: > 32 µM
HC-1
  IC50: 8.07 µM
LS-1034
  IC50: > 32 µM
KY821
  IC50: > 32 µM
EC-GI-10
  IC50: > 32 µM
LB373-MEL-D
  IC50: > 32 µM
ES6
  IC50: > 32 µM
MFM-223
  IC50: > 32 µM
KNS-81-FD
  IC50: > 32 µM
TE-10
  IC50: > 32 µM
NTERA-2-cl-D1
  IC50: > 32 µM
ES3
  IC50: 11.4 µM
LB771-HNC
  IC50: > 32 µM
ES5
  IC50: 12.3 µM
KM12
  IC50: > 32 µM
ES4
  IC50: 26.3 µM
NCI-H226
  IC50: 12.6 µM
EKVX
  IC50: > 32 µM
LU-139
  IC50: > 32 µM
NCI-H1838
  IC50: > 32 µM
ATN-1
  IC50: > 32 µM
DSH1
  IC50: > 32 µM
CAS-1
  IC50: > 32 µM
SNU1
  IC50: > 32 µM
HEL
  IC50: 3.73 µM
TK-10
  IC50: > 32 µM
MOLT-16
  IC50: > 32 µM
SJSA-1
  IC50: > 32 µM
SW684
  IC50: > 32 µM
COLO-800
  IC50: > 32 µM
NCI-H69
  IC50: > 32 µM
A3-KAW
  IC50: > 32 µM
NCI-H720
  IC50: > 32 µM
D283 Med
  IC50: > 32 µM
CTV-1
  IC50: 9.36 µM
TE-11
  IC50: > 32 µM
SK-LMS-1
  IC50: 14.8 µM
HD-MY-Z
  IC50: > 32 µM
COLO-684
  IC50: 20.3 µM
LS-411N
  IC50: > 32 µM
KS-1
  IC50: 6.89 µM
HCC2218
  IC50: > 32 µM
KLE
  IC50: > 32 µM
J-RT3-T3-5
  IC50: > 32 µM
NOS-1
  IC50: 11.7 µM
EOL1
  IC50: > 32 µM
MV4-11
  IC50: 9.16 µM

## N#Cc1c(O)c2c(-c3ccc(-c4ccccc4O)cc3)csc2[nH]c1=O
SK-NEP-1
  IC50: 0.185 µM
HAL-01
  IC50: > 1.02 µM
KNS-42
  IC50: > 1.02 µM
HC-1
  IC50: 0.0831 µM
LS-1034
  IC50: > 1.02 µM
KY821
  IC50: 0.817 µM
EC-GI-10
  IC50: > 1.02 µM
LB373-MEL-D
  IC50: > 1.02 µM
ES6
  IC50: > 1.02 µM
MFM-223
  IC50: > 1.02 µM
KNS-81-FD
  IC50: > 1.02 µM
TE-10
  IC50: > 1.02 µM
NTERA-2-cl-D1
  IC50: > 1.02 µM
ES3
  IC50: > 1.02 µM
LB771-HNC
  IC50: > 1.02 µM
ES5
  IC50: > 1.02 µM
KM12
  IC50: 0.0321 µM
ES4
  IC50: > 1.02 µM
NCI-H226
  IC50: 0.407 µM
EKVX
  IC50: > 1.02 µM
LU-139
  IC50: > 1.02 µM
NCI-H1838
  IC50: > 1.02 µM
ATN-1
  IC50: 0.499 µM
DSH1
  IC50: > 1.02 µM
CAS-1
  IC50: 0.193 µM
SNU1
  IC50: 0.311 µM
HEL
  IC50: 0.107 µM
TK-10
  IC50: > 1.02 µM
MOLT-16
  IC50: 0.0619 µM
SJSA-1
  IC50: > 1.02 µM
SW684
  IC50: > 1.02 µM
COLO-800
  IC50: > 1.02 µM
NCI-H69
  IC50: > 1.02 µM
A3-KAW
  IC50: 0.0917 µM
NCI-H720
  IC50: > 1.02 µM
D283 Med
  IC50: 0.386 µM
CTV-1
  IC50: 0.073 µM
TE-11
  IC50: > 1.02 µM
SK-LMS-1
  IC50: > 1.02 µM
HD-MY-Z
  IC50: 0.148 µM
COLO-684
  IC50: 0.303 µM
LS-411N
  IC50: > 1.02 µM
KS-1
  IC50: > 1.02 µM
HCC2218
  IC50: 0.342 µM
KLE
  IC50: > 1.02 µM
J-RT3-T3-5
  IC50: 0.378 µM
NOS-1
  IC50: > 1.02 µM
EOL1
  IC50: 0.0956 µM
MV4-11
  IC50: 0.0227 µM
